# Test results as given in patent publication US11701353B2, “Methods, compositions, and uses of novel FYN kinase inhibitors” (Pathways Neuro Pharma, Inc., priority 2015, dated 2023).
# Biological target: Fyn (Mus musculus (Mouse), UniProt P39688)
# Assay: not given
# Settings: Fyn knockout strains; cited from earlier work
# Fyn, sequence (P39688 whole entry): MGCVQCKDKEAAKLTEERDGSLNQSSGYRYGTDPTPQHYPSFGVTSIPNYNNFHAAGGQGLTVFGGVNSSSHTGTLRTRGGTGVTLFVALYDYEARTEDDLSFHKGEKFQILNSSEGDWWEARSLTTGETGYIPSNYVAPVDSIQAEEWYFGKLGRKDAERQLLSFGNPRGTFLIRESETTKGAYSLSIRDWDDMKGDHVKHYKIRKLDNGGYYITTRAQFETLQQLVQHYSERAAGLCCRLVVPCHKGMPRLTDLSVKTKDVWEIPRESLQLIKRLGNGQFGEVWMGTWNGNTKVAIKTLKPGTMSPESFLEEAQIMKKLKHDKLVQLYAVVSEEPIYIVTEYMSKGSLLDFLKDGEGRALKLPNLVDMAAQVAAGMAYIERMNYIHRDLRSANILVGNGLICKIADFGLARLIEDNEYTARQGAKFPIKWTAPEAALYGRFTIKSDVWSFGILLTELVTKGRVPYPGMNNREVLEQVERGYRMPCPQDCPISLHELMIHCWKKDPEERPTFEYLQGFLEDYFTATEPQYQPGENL
Structure (SMILES),energy utilization,lipid utilization
CN(C)S(=O)(=O)c1ccc2c(c1)/C(=C/c1cc3c([nH]1)CCCC3)C(=O)N2 [SU6656],no increase,no increase

# Same assay, conditions: treated mice relative to untreated control mice; cited from earlier work
row,Structure (SMILES),fat mass
1,CN(C)S(=O)(=O)c1ccc2c(c1)/C(=C/c1cc3c([nH]1)CCCC3)C(=O)N2 [SU6656],significantly reduced

# Biological target: full-length recombinant human FYN A (Homo sapiens (Human), UniProt P06241)
# Sequence (P06241 whole entry): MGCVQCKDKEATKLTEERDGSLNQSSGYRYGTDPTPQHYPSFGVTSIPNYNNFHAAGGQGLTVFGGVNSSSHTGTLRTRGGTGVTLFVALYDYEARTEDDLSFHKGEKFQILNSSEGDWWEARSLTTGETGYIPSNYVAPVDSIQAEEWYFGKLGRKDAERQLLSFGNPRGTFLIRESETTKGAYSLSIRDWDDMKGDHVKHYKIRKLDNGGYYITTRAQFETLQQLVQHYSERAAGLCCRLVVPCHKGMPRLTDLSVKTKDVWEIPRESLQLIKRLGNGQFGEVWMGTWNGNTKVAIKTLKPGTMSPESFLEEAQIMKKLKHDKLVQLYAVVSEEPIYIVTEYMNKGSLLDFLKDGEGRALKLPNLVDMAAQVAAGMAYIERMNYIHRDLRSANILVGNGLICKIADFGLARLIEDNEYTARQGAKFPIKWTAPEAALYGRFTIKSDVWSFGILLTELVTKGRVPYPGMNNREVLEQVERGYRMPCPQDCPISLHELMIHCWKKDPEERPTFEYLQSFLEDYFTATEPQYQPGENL
# Assay: ADP-Glo Kinase Assay, FYN kinase inhibition (primary and secondary screen)
# Format: biochemical
# Settings: primary screen, initial compounds
# Text: The chemical library was comprised of the SoftFocus ATP-competitive hinge binding compounds described by Harris, C. J., Hill, R. D., Sheppard, D. W., et al., The Design and Application of Target-Focused Compound Libraries. Combinatorial Chemistry and High Throughput Screening 14:521-31 (2011). The specific pharmacore chemistries included SFK52 comprising 6-[R2]-3-[R1]imidazo[1,2-b] pyridazine compounds, SFK33 comprising N-(3-[R2] imidazo [1,2-b] pyridazin-6-yl) [R1] amine compounds, SFK49 comprising N-(5-[R2] imidazo [2,1-b][1,3,4] thiadiazol-2-yl)[R1]-amine compounds, SFK 40 comprising 5-[R2]-3-[R1] pyridin-2-amine compounds, SFK43 comprising 6-[R2]-3-[R1]imidazo[1,2-a] pyrazine compounds, and SFK63. The chemical structures of the initial 600 potential kinase inhibitors are presented in Table 3, with those chosen for additional analysis presented in Table 4. Comparison of the compounds presented in Table 1 and those of Tables 2, 3 and 4, illustrate the novelty of the chemical structures claimed herein.
# FYN kinase (10 micrograms) was from the FYN A Kinase Enzyme System (V3571, Promega UK Ltd.), a full-length recombinant human FYN A containing an N-terminal GST tag of about 85 kDa, expressed by bacullovirus in […] insect cells, supplied at a concentration of 0.1 microgram/microliter in 5× reaction buffer. The FYN substrate, a 12 amino acid peptide of the sequence […], containing a single tyrosine phosphorylation site, was custom synthesized (Peptide Synthetics, Peptide Protein Research, Fareham, UK) and supplied as a 4 mg/ml aqueous solution. All other reagents were obtained from Sigma (Sigma-Aldrich, Gillingham, Dorset, UK), with the exception of UltraPure ATP (V9102, Promega UK Ltd.) and the ATP-competitive broad spectrum protein kinase inhibitor staurosporine (569397, Merck Millipore, Watford, Hertfordshire, UK), or as otherwise indicated.
# The assay procedure determines the IC50 of each potential FYN kinase inhibitor by measuring the enzyme catalyzed ATP-dependent phosphorylation of the FYN substrate peptide. The ADP-Glo™ Kinase Assay is specifically designed to quantify kinase activity by measuring the ADP produced in the reaction The reaction buffer comprises 40 mM Tris·HCl (pH 7.5), 20 mM MgCl2, 0.1 mg/ml BSA and 5 microM DTT. Individual compounds within the chemical library were dissolved in DMSO at known concentrations. Briefly, 2.5 microliters of reaction buffer containing 3 picograms of FYN kinase and serial dilutions of each potential FYN kinase inhibitor (9 3-fold dilutions of a 10 micromolar top sample) are placed into each well of a 384 well microtiter plate and incubated at room temperature for 30 minutes. An additional 2.5 microliters of reaction buffer containing 100 picograms of the FYN substrate and 12.5 picomoles of ATP are then added to each well and the reaction carried out for 90 minutes at room temperature. The reactions are terminated by addition of 5 microliters of the ADP-Glo™ Reagent component of the ADP-Glo™ Kinase Assay kit to each well. The ADP-Glo™ Reagent comprises an ATP-dependent adenylate cyclase, an inorganic pyrophosphatase and an excess of staurosporine. The adenylate cyclase converts the remaining ATP to cAMP and pyrophospahte, the pyrophosphatase converts the pyrophosphate to phosphate and the staurosporine inhibits the activity of the FYN kinase, the net effect is to remove all residual ATP while preserving the ADP produced by FYN kinase. The terminated reactions are incubated for 40 minutes at room temperature, prior to addition of the Kinase Detection Reagent component of the ADP-Glo™ Kinase Assay kit to each well. The Kinase Detection Reagent comprises pyruvate kinase, phosphoenol pyruvate (PEP), luciferin and luciferase. The pyruvate kinase converts PEP to pyruvate and in the process generates ATP from the residual ADP present in the terminated reaction. […]
row,IC50,Structure (SMILES)
1,11200 nM,"CC(=O)Nc1cccc(-c2cncc(NCc3ccco3)n2)c1 [035_0144_0081, N-[3-[6-(2-furylmethyl-amino)pyrazin-2-yl]phenyl] acetamide]"
2,10900 nM,"Oc1cccc(-c2cncc(NCc3ccoc3)c2)c1 [081_0284_2069, 3-[5-(3-furylmethyl-amino)-3-pyridyl]phenol]"
3,2200 nM,"OCc1ccc(-c2cnc3ccc(NCc4ccco4)nn23)cc1 [229_0144_0285, [4-[6-(2-furylmethyl-amino)imidazo[1,2-b]pyridazin-3-yl]phenyl] methanol]"
4,3860 nM,"OCc1cccc(-c2cnc3ccc(NCc4ccco4)nn23)c1 [229_0144_0291, [3-[6-(2-furylmethyl-amino)imidazo[1,2-b]pyridazin-3-yl]phenyl] methanol]"
5,997 nM,"CC(=O)c1cccc(-c2cnc3ccc(NCc4ccco4)nn23)c1 [229_0144_4145, 1-[3-[6-(2-furylmethyl-amino)imidazo[1,2-b]pyridazin-3-yl]phenyl] ethanone]"
6,1940 nM,"NC(=O)c1cccc(-c2cnc3sc(NCC4CC4)nn23)c1 [699_4051_0347, 3-[2-(cyclopropyl-methyl-amino)imidazo [2,1-b][1,3,4]thia-diazol-5-yl]benzamide]"
7,3730 nM,"Cc1ccccc1CNc1nn2c(-c3cccc(C(=O)N(C)C)c3)cnc2s1 [699_8074_0349, N,N-dimethyl-3-[2-(o-tolylmethyl-amino)imidazo[2,1-b][1,3,4]thia-diazol-5-yl]benzamide]"
8,3590 nM,"O=CNc1cc(-c2ccc(C(=O)N3CCOCC3)cc2)cn2c(-c3ccc(F)cc3)cnc12 [788_0339_0337, N-[3-(4-fluorophenyl)-6-[4-(morpholine-4-carbonyl)phenyl]imidazo[1,2-a]pyridin-8-yl]formamide]"
9,974 nM,"COc1ccc(-c2cnc3ccc(Cc4ccccc4)nn23)cc1OC [828_0079_6001, 6-benzyl-3-(3,4-dimethoxyphen-yl)imidazo[1,2-b]pyridazine]"
10,1300 nM,"NC(=O)c1ccc(-c2cnc3ccc(Cc4ccc(F)cc4)nn23)cc1 [828_0346_6370, 4-[6-[(4-fluorophenyl)methyl]imidazo [1,2-b]pyridazin-3-yl]benzamide]"
11,497 nM,"c1csc(-c2cnc3ccc(-c4ccncc4)nn23)c1 [828_4147_0069, 6-(4-pyridyl)-3-(2-thienyl)imidazo [1,2-b]pyridazine]"

# Same assay, conditions: secondary screen, candidate compounds re-synthesized and expanded
row,Structure (SMILES),IC50
1,"COc1cc(-c2cnc3ccc(NCc4cccs4)nn23)ccc1O [BF000145954, 2-methoxy-4-[6-(2-thienylmeth-ylamino)imi-dazo[1,2-b]pyridazin-3-yl]phenol]",166 nM
2,"CN(C)C(=O)c1cccc(-c2cnc3sc(NCC4CC4)nn23)c1 [BF000714798, 3-[2-(cyclopropyl-methylamino)imidazo[2,1-b][1,3,4]thia-diazol-5-yl]-N,N-dimethyl-benzamide]",884 nM
3,"CN(C)C(=O)c1cccc(-c2cnc3sc(NCc4ccc5c(c4)OCO5)nn23)c1 [BF000717214, 3-[2-(1,3-benzodioxol-5-ylmethyl-amino)imi-dazo[2,1-b][1,3,4]thia-diazol-5-yl]-N,N-dimethyl-benzamide]",1930 nM
4,"COc1cc(-c2cnc3ccc(NCc4ccccn4)nn23)ccc1O [BF000817095, 2-methoxy-4-[6-(2-pyridylmeth-ylamino)imi-dazo[1,2-b]pyridazin-3-yl]phenol]",233 nM
